Reference: publication PMC6353901, “Systematic characterization of position one variants within the lantibiotic nisin” (Scientific Reports, 2019)
Ends that are not written are not given here.

What was measured:
NisP = test: Leader peptide cleavage of pre-nisin variants by NisP (RP-HPLC); assay type: biochemical, Lactococcus lactis; settings: in vitro cleavage of the leader peptide from purified pre-nisin (variant) by purified secreted NisP, overnight at 8 °C, integration of leader peptide peaks
Source text: Step IV concerns leader peptide cleavage and thereby activation of the purified pre-nisin variants. Here, we used the secreted variant of the natural leader peptidase NisP, by which the leader peptide is cleaved in vitro and the cleavage efficiency (%) can be calculated as recently shown. We used an RP-HPLC set-up to monitor product formation, in which the appearance of the leader peptide in the chromatograms was used to determine the concentration of activated nisin (Supplementary Fig. S3). […] The nisin core peptide eluted at a later retention time of approximately 23 min (Supplementary Fig. S3). […] However, in the case of the I1 mutants I1A, I1G, I1T, I1S, I1K, I1R, I1H, I1Q, I1E, I1N and I1D) the formation of a core peptide peak in terms of a new and separated peak in the chromatogram was not observed (Supplementary Fig. S4). Rather, the peaks with a retention time between 18–21 min contained both species, the cleaved and non-cleaved lantibiotic, and can therefore not be deconvoluted for proper determination of the amount of activated nisin. […] The concentration was calculated based on a standard calibration curve (Supplementary Fig. S5), where we precisely determined the concentration of the activated nisin or I1 mutants. We used this concentration determination instead of the colorimetric protein concentration determination as for example Bradford or the BCA-assay since the latter two assays cannot differentiate between the activated and non-activated form of the secreted variants. Since nisin is not active unless the leader is cleaved off, the determination of the area of the leader peak to calculate the amount of the activated lantibiotic directly relates to the antimicrobial activity without need to further purify the peptide after cleavage.
All I1 mutations were subjected to NisP cleavage and most of the variants were cleaved, but a strong influence of the nature of the I1 substitutions with respect to cleavage efficiency was observed (Supplementary Fig. S6). The cleavage efficiency for wild type pre-nisin A was 94.3 ± 1.7% but lower for the mutants I1M, I1L, I1A and I1V (72.3 ± 1.4%, 72.4 ± 1.3%, 81.0 ± 1.8% and 58.1± 2.8%, respectively). […] This holds especially in those cases, where the amino acid at position one was exchanged to a charged amino acid (e.g. I1K 9.2 ± 1.3%; I1E 9.5 ± 0.7%) or contained a bulky hydrophobic side chain (e.g. I1F 12.9 ± 0.8%; I1W 5.7 ± 0.2%; I1Y 22.6 ± 2.3%) (Supplementary Fig. S6). […] Even after an extensive prolongation of the incubation time, no leader peptide peak was detected in the RP-HPLC chromatogram (Supplementary Fig. S4). It is important to stress in this context that the cleavage efficiencies cannot be determined from Tricine-SDS gels (20%). Here, the leader peptide as well as the core peptide would co-migrate, which obviously will falsify the staining results.
Pre-nisin and its variants were expressed and purified as previously described[41],[49],[69]. The purity of pre-nisin and its variants was controlled by Tricine-SDS-PAGE (20%)[70]. The activation of all variants was performed by NisP cleavage overnight at 8 °C. Pre-nisin cleavage and its variants was monitored by RP-HPLC[49],[69].
Pre-nisin and the activated nisin variants were analysed by RP-HPLC (Agilent Technologies 1260 Infinity II) with a LiChrospher WP 300 RP-18 end-capped column and an acetonitrile/water solvent system. The cleavage efficiency and the concentration of active lantibiotic was calculated as described previously[49],[69].

[1] = pre-lantibiotic in contrast to nisin; cited from earlier work
Method: As an advantage any lantibiotic can be produced as a pre-lantibiotic. […] Normally, we observed yields for the pre-nisin and its variants of 3–6 mg per liter cell culture supernatant after purificatio ...

| Molecule | cleavage efficiency by NisP (NisP) | pH stability [1] |
| --- | --- | --- |
| C=C(NC(=O)[C@@H](NC(=O)[C@H](Cc1c[nH]cn1)NC(=O)[C@@H](NC(=O)[C@H](CO)NC(=O)[C@@H]1CS[C@@H](C)[C@H]2NC(=O)[C@H](C)NC(=O)[C@H](NC(=O)[C@H](CCCCN)NC(=O)[C@H](CCSC)NC(=O)[C@H](CC(N)=O)NC(=O)[C@@H]3CS[C@@H](C)[C@@H](NC(=O)[C@H](CCCCN)NC(=O)[C@@H]4CS[C@@H](C)[C@@H](NC(=O)[C@@H]5CSC[C@@H](NC(=O)/C(=C/C)NC(=O)[C@@H](N)Cc6ccc(O)cc6)C(=O)N[C@@H]([C@@H](C)CC)C(=O)NC(=C)C(=O)N[C@@H](CC(C)C)C(=O)N5)C(=O)N5CCC[C@H]5C(=O)NCC(=O)N4)C(=O)NCC(=O)N[C@@H](C)C(=O)N[C@@H](CC(C)C)C(=O)N[C@@H](CCSC)C(=O)NCC(=O)N3)[C@H](C)SC[C@H](NC2=O)C(=O)N[C@@H](Cc2c[nH]cn2)C(=O)N1)[C@@H](C)CC)C(C)C)C(=O)N[C@@H](CCCCN)C(=O)O [I1Y] | 22.6 ± 2.3% |  |
| I1P: nisin A variant, position one exchanged to P; pre-peptide not cleaved by NisP (MSTKDFNLDLVSVSKKDSGASPRPTSISLCTPGCKTGALMGCNMKTATCHCSIHVSK; ends and bridges not checked; cysteine pairing not given here; UniProt P13068 1-57, looked up, variant I1P) | not cleaved at all |  |
| wild type pre-nisin A: leader-containing, fully modified precursor of nisin A, not yet activated by NisP (MSTKDFNLDLVSVSKKDSGASPRITSISLCTPGCKTGALMGCNMKTATCHCSIHVSK; thioether (positions not given here); not fully specified (some residues, bridges); also: fully post-translationally modified, places not given here; UniProt P13068 1-57, looked up) [reference compound] | 94.3 ± 1.7% | higher pH stability |
